# How the values were obtained:
# [1] = tested on: R0 plants; assay: Comparison of doubling with and without colchicine: ploidy number of R0 plants; assay type: in vivo, corn
# Source text: Comparison of Doubling with and without Colchicine
# This is about a 3-fold increase in the amount of doubling. The doubling from the Agrobacterium-mediated transformation process is about as efficient as a very low level of colchicine (50%), but not as effective as a more typical amount (83%).
# [2] = tested on: plant tissues; assay: Regenerability of plant tissues exposed to colchicine (own experiments); assay type: cell-based; conditions: levels of colchicine below levels used for chromosome doubling
# Source text: The ability to produce dihaploid transformed plants without the use of an added chromosome doubling agent is a huge advantage. Chromosome doubling agents tend to be highly toxic chemicals because they are antimicrotubule agents. Also, when using chromosome doubling agents to produce dihaploids from haploids some tetraploids are formed as well. Also, optimization of the chromosome doubling agent is detrimental to the production of transformants in the transformation process.
smiles,measurement,setting,value
COc1cc2c(c(OC)c1OC)-c1ccc(OC)c(=O)cc1[C@@H](NC(C)=O)CC2 [colchicine],% diploid,[1]; no transformation + 0.01% colchicine + plant regeneration (very low level of colchicine),50%
same,% diploid,[1]; no transformation + 0.025% colchicine + plant regeneration (more typical amount used for doubling),83%
same,regenerability of plant tissues,[2],greatly diminish the regenerability of plant tissues
